Test results taken from BindingDB's records for patent US11723908 (Suzhou Zanrong Pharma, 2023).

Target: Receptor tyrosine-protein kinase erbB-2 (Homo sapiens, UniProt P04626)
Test: BT474 Cellular Assay (HER2 Inhibition)
Protocol: Inhibition of phosphor HER2 was determined by enzyme-linked immunosorbent assay (ELISA) in BT474 cells. BT474 cell line was purchased from ATCC (catalog number HTB-20). Human Phospho-ErbB2 ELISA kit was purchased from R&D systems (catalog number DYC1768).

Chain of Receptor tyrosine-protein kinase erbB-2 (P04626 whole entry): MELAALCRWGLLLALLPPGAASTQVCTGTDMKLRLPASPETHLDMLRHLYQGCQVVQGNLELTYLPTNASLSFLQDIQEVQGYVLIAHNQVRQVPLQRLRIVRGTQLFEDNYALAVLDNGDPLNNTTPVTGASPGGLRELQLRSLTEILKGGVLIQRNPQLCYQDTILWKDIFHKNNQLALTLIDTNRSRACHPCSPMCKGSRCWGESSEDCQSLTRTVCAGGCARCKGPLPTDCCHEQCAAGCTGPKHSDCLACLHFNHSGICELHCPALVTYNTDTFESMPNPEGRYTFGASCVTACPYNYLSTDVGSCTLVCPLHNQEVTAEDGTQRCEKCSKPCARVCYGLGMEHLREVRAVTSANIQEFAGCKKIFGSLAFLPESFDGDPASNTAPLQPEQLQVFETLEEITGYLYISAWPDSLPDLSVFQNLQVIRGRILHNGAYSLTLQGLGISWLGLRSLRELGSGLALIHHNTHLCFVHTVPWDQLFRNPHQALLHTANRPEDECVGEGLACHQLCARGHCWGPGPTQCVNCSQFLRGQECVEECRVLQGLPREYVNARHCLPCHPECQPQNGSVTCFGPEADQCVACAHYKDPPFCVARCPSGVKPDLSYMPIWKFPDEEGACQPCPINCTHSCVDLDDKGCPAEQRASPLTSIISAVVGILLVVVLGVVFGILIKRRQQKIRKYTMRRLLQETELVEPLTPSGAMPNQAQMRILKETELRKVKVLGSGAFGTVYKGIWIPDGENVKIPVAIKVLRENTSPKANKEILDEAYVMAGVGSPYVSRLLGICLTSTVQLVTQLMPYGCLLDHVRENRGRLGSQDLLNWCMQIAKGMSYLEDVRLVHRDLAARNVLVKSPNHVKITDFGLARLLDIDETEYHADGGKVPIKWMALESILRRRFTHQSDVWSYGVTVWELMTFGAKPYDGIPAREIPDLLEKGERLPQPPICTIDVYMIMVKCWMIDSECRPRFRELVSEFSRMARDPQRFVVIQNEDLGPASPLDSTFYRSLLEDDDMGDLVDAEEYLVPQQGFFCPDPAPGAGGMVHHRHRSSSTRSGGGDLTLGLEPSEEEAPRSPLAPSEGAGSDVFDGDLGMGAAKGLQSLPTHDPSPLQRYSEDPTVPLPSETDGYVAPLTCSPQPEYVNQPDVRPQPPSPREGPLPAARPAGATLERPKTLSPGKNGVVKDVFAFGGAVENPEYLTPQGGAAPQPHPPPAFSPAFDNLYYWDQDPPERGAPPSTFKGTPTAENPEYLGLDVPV

- IC50: 145 nM
Structure (SMILES): Cc1cc(Nc2ncnc3ccc(OC(F)(F)F)c(O[C@H]4CCN(C)CC4(F)F)c23)ccc1Oc1cc2ncnn2cn1 [US11723908, Example 73]
